Key:
[1] = target: T1, human PPARδ (Homo sapiens, UniProt Q03181); experiment: PPARδ agonist reporter assay (Gal4 hybrid receptor, luciferase, CHO cells); format: cell-based
T1 construct: expressed in transfected cells; host or cells: CHO
T1 sequence (Q03181 211-439 limits assumed): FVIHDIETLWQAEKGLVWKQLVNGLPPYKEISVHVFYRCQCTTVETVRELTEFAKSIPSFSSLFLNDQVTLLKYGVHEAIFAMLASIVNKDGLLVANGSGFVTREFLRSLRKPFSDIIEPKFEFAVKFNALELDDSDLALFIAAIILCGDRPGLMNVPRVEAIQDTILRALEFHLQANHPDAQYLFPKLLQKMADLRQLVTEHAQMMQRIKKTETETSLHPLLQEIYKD

[2] = test system: C. elegans strain CB5586; experiment: C. elegans phenotypic lifespan screening (Kaplan-Meier, Log-Rank, Fisher's Exact Test); format: in vivo; conditions: for restricted mean lifespan, # of Days: DMSO control 13.23
Method: Dilutions of the test formulations were applied to individual populations of C. elegans and the lifespan of each population was monitored. Any changes in the lifespan of an individual population compared to a control population were recorded and correlated to the respective test formulation (N356 or N357) and the respective dilution (0.1 mg/ml, 1 mg/ml, and 10 mg/ml).
The […] and N357 formulations were each prepared as individual 100 mg/ml stock solutions in dimethyl sulfoxide (DMSO). Serial dilutions of each stock solution were then prepared at 0.1 mg/ml, 1 mg/ml, and 10 mg/ml in DMSO. Control solutions of DMSO only were also prepared. Synchronous aged adult populations of C.elegans strain CB5586 worms were prepared. The CB5586 strain comprises a pharyngeal GFP (green fluorescent protein) tag and a mutation in the bus-5 gene. The pharyngeal GFP tag allows for fluorescent images of the worm populations to be taken. The mutation in the bus-5 gene causes the loss of normal cuticle antigens that permits the cuticle of the worms to become permeable to the test formulations and allow direct uptake of the test formulations to avoid interaction of the test formulations with protective mechanisms of the gut channel. Each serial dilution of each test formulation was added to a separate population of the prepared worms. The control solutions were also added to separate populations of the prepared worms. The populations of the prepared worms were then maintained on standard nematode growth media (NGM) agar plates at 20° C. with sufficient food (Escherichia coli strain OP-50).
Each worm population was then monitored by fluorescent imaging to determine the number of living and dead worms as a function of time. The fluorescent imaging was analyzed by software that recognized and counted worms based on their fluorescent intensity compared to background fluorescence. […] The ability to distinguish between living and dead worms allowed the number of living worms and cumulative number of dead worms to be monitored against time. Worm populations from a selection of fluorescent images were manually checked to verify that the software had accurately counted the number of living and dead worms.
The counts of the living and dead worms as a function of time were then analyzed for each of the worm populations and used to prepare Kaplan-Meier survival curves and associated statistics for each of the worm populations. […] The median lifespan is shown as the length of time after the last mitotic division that 50% of the test population remains viable when compared to the control population. The maximum lifespan extension is shown as the length of time after the last mitotic division that 5% of the test population remains viable when compared to the control population.
The counts of the living and dead worms as a function of time and the Kaplan-Meier survival curves and the associated statistics were then analyzed for each of the worm populations. The analysis included determining mean and median lifespan. The analysis included a non-parametric test, the Log-Rank test, that compares two survival functions for the overall lifespan assay and provides a reliable p-value summarizing the whole experiment. The analysis also included Fisher's Exact Test that calculated the significance of survival function comparisons at multiple specific time points throughout the experiment, rather than for the overall lifespan. The results of the analysis are shown below in Tables 10-17.
Phenotypic screening was carried out as described in EXAMPLE 2 for various individual compounds of the N357 formulation. […] Alpha lipoic acid was sourced from PureBulk USA as a racemic mix of R and S stereoisomers and was assigned a sample number of N198. Hesperidin was sourced from Sigma Aldrich at ≧80% purity and was assigned a sample number of N347. […]

[3] = target: T2, Nrf2 (Homo sapiens, UniProt Q16236); experiment: Nrf2 signaling fluorescent reporter assay in human retinal epithelial cell line; format: cell-based; set-up: host or cells: human retinal epithelial cell line
T2 sequence (Q16236 1-605): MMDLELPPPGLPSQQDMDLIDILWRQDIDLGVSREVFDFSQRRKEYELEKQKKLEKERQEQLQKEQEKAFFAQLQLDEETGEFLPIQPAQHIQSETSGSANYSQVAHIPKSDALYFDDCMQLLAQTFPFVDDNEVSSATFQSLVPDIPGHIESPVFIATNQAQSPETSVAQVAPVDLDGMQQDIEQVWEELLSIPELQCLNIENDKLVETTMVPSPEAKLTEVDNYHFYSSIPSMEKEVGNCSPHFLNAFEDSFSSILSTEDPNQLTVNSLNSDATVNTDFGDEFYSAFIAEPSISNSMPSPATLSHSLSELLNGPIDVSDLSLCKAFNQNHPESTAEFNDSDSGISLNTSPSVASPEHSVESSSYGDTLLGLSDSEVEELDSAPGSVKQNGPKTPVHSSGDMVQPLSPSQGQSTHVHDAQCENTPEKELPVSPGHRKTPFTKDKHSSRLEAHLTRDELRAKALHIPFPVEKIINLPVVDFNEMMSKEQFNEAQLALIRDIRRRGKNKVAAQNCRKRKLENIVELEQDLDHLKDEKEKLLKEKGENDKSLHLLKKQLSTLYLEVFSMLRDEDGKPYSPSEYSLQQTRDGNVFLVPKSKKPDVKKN

O=C(O)CCCCC1CCSS1 (racemic) [Alpha lipoic acid, alpha lipoic acid]
PPARδ Fold-Activation ([1]; 1.42 μg/ml active ingredient): 1.5 fold
PPARδ Fold-Activation ([1]; 4.25 μg/ml active ingredient): 1.1 fold
PPARδ Fold-Activation ([1]; 12.7 μg/ml active ingredient): 0.80 fold
PPARδ Fold-Activation ([1]; 38.23 μg/ml active ingredient): 0.52 fold
PPARδ Fold-Activation ([1]; 114.70 μg/ml active ingredient): 0.29 fold
Statistically Significant Result (lifespan vs. DMSO control) ([2]; 0.1 mg/ml): Statistically significant increase
extension of lifespan ([2]; 0.1 mg/ml): about 12.5%
population age in days at 25% mortality ([2]; 0.1 mg/ml): 14 days
population age in days at 50% mortality ([2]; 0.1 mg/ml): 16 days
population age in days at 75% mortality ([2]; 0.1 mg/ml): 18 days
effect on chronological lifespan ([2]; 0.1 mg/ml and 10 mg/ml tested): significant positive and dose dependent increase of chronological lifespan
% Change in Mean Lifespan ([2]; 0.1 mg/ml vs. DMSO control): +12.5%
restricted mean lifespan, # of Days ([2]; 0.1 mg/ml): 14.89 days
Statistically Significant Result (lifespan vs. DMSO control) ([2]; 10 mg/ml): Statistically significant increase
extension of lifespan ([2]; 10 mg/ml): about 12.5%
population age in days at 25% mortality ([2]; 10 mg/ml): 14 days
population age in days at 50% mortality ([2]; 10 mg/ml): 16 days
population age in days at 75% mortality ([2]; 10 mg/ml): 18 days
% Change in Mean Lifespan ([2]; 10 mg/ml vs. DMSO control): +12.5%
restricted mean lifespan, # of Days ([2]; 10 mg/ml): 14.85 days
activation of Nrf2 ([3]; 100 μM and 30 μM against a control): demonstrated activation of Nrf2 at both 100 μM and 30 μM
minimum inducing concentration (Nrf2) ([3]; human retinal epithelial cell line): 1.75 µM
